# Test results published in ChEMBL document CHEMBL3808292, “Synthesis and biological evaluation of 5,7-dihydroxyflavanone derivatives as antimicrobial agents” (Bioorg Med Chem Lett, 2016).
# Assays:
# [1] = system: Escherichia coli; test: Antimicrobial activity against Escherichia coli BW25113 after 24 hrs by spectrophotometric method; type: functional; conditions: BW25113, 24 h
# [2] = system: Pseudomonas aeruginosa; test: Antimicrobial activity against Pseudomonas aeruginosa PAO1 after 24 hrs by spectrophotometric method; type: functional; conditions: PAO1, 24 h
# [3] = system: Vibrio cholerae; test: Antimicrobial activity against Vibrio cholerae 0395N1 after 24 hrs by spectrophotometric method; type: functional; conditions: 0395N1, 24 h
# [4] = system: Bacillus subtilis; test: Antimicrobial activity against Bacillus subtilis 1012 after 24 hrs by spectrophotometric method; type: functional; conditions: Bacillus subtilis, 1012, 24 h
# [5] = system: Bacillus anthracis; test: Antimicrobial activity against Bacillus anthracis delta sterne after 24 hrs by spectrophotometric method; type: functional
# [6] = system: Bacillus cereus; test: Antimicrobial activity against Bacillus cereus 10987 after 24 hrs by spectrophotometric method; type: functional; conditions: Bacillus cereus, 10987, 24 h
# [7] = system: Staphylococcus aureus; test: Antimicrobial activity against Staphylococcus aureus ATCC 33807 after 24 hrs by spectrophotometric method; type: functional; conditions: ATCC 33807, 24 h
# [8] = system: Saccharomyces cerevisiae; test: Antifungal activity against Saccharomyces cerevisiae INVSc1 after 24 hrs by spectrophotometric method; type: functional; conditions: INVSc1, 24 h
# [9] = Aqueous solubility of compound; type: physicochemical; conditions: buffer
# [10] = system: HepG2; test: Cytotoxicity against human HepG2 cells assessed as cell viability after 24 hrs by MTS assay; type: cell-based; conditions: for Activity: human, hepg2, 24 h
# [11] = system: HepG2; test: (§1) Cytotoxicity against human HepG2 cells assessed as cell viability at 50 uM after 24 hrs by MTS assay; type: cell-based; conditions: hepg2, 24 h, 50 µM
# [12] = Aqueous solubility of compound at 50 uM; type: physicochemical; conditions: buffer
# [13] = Cytotoxicity against human HepG2 cells assessed as cell viability at 50 uM after 6 hrs by MTS assay; type: cell-based; conditions: read-out: Activity
# [14] = as §1; type: cell-based; conditions: HepG2 cells, read-out: Activity
SMILES,MIC [1] [µM],MIC [2] [µM],MIC [3] [µM],MIC [4] [µM],MIC [5] [µM],MIC [6] [µM],MIC [7] [µM],MIC [8] [µM],solubility [9] [µM],Activity [10],Activity [11],solubility [12],"viability at 6 h, 50 µM [13] [%]","viability at 24 h, 50 µM [14] [%]","IC50 ([10]; Homo sapiens, HepG2, 24 h) [µM]"
O=C1CC(c2ccc(Cl)c(F)c2)Oc2cc(O)cc(O)c21 (centres undefined),250,250,125,125,62.5,93.8,125,250,500,Dose-dependent effect,Non-toxic,soluble,,,
O=C1CC(c2ccc(F)cc2)Oc2cc(O)cc(O)c21 (centres undefined),500,500,125,125,125,125,125,250,1000,Dose-dependent effect,Non-toxic,soluble,,,
O=C1CC(c2ccc(F)c(F)c2)Oc2cc(O)cc(O)c21 (centres undefined),1000,1000,125,125,62.5,125,125,1000,1000,Dose-dependent effect,Non-toxic,soluble,,,
O=C1CC(c2ccc(Cl)c(Cl)c2)Oc2cc(O)cc(O)c21 (centres undefined),125,125,125,62.5,31.2,31.2,62.5,31.2,63,Dose-dependent effect,,soluble,17,57,
O=C1CC(c2cc(F)c(F)c(F)c2)Oc2cc(O)cc(O)c21 (centres undefined),1000,1000,1000,1000,1000,1000,1000,125,500,Dose-dependent effect,Non-toxic,soluble,,,95
O=C1CC(c2cc(O)c(O)c(O)c2)Oc2cc(O)cc(O)c21 (centres undefined),1000,1000,1000,1000,1000,1000,1000,1000,63,Dose-dependent effect,Non-toxic,soluble,,,
